Reference: patent US10781203B2, “Nontoxic compounds for the treatment and prevention of herpesvirus infections” (The Penn State Research Foundation, priority 2016, dated 2020)

Columns and labels:
HCMV [1] = experiment: HCMV multi-step growth curve (MOI=0.05); assay type: cell-based, Human cytomegalovirus (HCMV); conditions: MOI 0.05 pfu/cell; 15 dpi; media exchanged and fresh drug added at 6 dpi
Method: (§1) Infections were done at an MOI of 0.05 for multi-step growth curves and MOI 3 for single-step growth curves. Infections were done on NHDFs unless otherwise noted. Virus was incubated with cells for 2 hours before addition of fresh media. For growth curve analyses, virus was harvested at the indicated time-points for each experiment by scraping the cells into the medium, sonicating 10 times with 1 second pulses, vortexing for 15 seconds, and centrifuging at 13,000 rpm for 10 min. Supernatants were collected, aliquoted and flash-frozen in liquid nitrogen before storage at −80° C.
For MCMV growth curve analysis, samples were titrated on NIH 3T3 cells and titers were calculated using the 50% tissue culture infective dose method. Both HCMV virus stocks and samples for growth curves were titrated by serial dilutions on MRC5 cells and quantified by the immunological detection of immediate-early proteins as previously described (Britt W J. Human cytomegalovirus: propagation, quantification, and storage. Curr Protoc Microbiol. 2010; Chapter 14: Unit 14E.3). The numbers of stained nuclei were acquired on a Nikon Eclipse Ti Inverted microscope and fluorescent nuclei were quantified using the NIS Elements Software. Images of viral foci from infection of ARPE19 cells were also acquired on Eclipse Ti Inverted microscope. The number and size of foci were quantified using NIS Elements software. […]

STX5 = biological target: T1, STX5 (Homo sapiens, UniProt Q13190); experiment: Immunofluorescence detection of STX5 localization; assay type: cell-based
T1 construct: immunofluorescence detection of STX5 in uninfected (Mock) and HCMV-infected cells (96 hpi) in the presence of DMSO control or Retro94; endogenous in cells; host or cells: uninfected (mock) or HCMV-infected cells
T1 sequence (Q13190 1-355): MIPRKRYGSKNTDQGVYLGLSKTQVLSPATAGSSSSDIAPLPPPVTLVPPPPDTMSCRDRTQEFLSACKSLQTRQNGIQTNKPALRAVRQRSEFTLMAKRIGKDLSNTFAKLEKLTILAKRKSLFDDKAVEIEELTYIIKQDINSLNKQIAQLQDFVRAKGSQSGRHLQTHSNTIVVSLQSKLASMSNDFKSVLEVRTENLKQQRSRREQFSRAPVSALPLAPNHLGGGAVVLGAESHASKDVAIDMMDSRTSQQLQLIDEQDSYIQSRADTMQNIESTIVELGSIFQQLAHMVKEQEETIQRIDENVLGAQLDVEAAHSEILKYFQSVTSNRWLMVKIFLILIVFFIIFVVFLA
Method: Coverslips or chamber slides containing either uninfected or HCMV-infected cells were washed in phosphate-buffered saline (PBS) and fixed in 2% paraformaldehyde for 15 min at room temperature. Cells were blocked in PBS containing 10% human serum, 0.5% Tween-20, and 5% glycine. 0.1% Triton-X 100 was added for permeabilization. Primary and secondary antibodies as specified in the antibody section were diluted in blocking buffer. Nuclei were stained with DAPI prior to mounting with ProLong Diamond Antifade Mountant (ThermoScientific). For live-cell experiments using the pp28-mCherry virus, cells were grown on glass bottom microwell dishes (MatTek Corporation) and nuclei were stained with NucBlue Live Cell Stain ReadyProbes reagent (ThermoScientific). All images were acquired using a C2+ Confocal Microscope System (Nikon). Images were processed using NIS elements software. Images shown are volume renderings of Z-stacks.

cells = experiment: Cell viability after extended treatment (trypan blue, bright field); assay type: cell-based
Excerpt: FIG. 3A is a growth curve analysis of HCMV (MOI=3) in untreated (WT), vehicle treated (DMSO) or Retro94-treated cells. Samples were harvested at 24, 48, 72, 96, 120 and 144 hpi. […] Nuclei labeled with DAPI (blue). Scale bars: 10 μm. FIG. 3C is a growth curve analysis of HCMV (MOI=0.05) in DMSO control (DMSO) or Retro94-treated cells. Samples were harvested at 3, 6, 9, 12 and 15 dpi. Asterisks indicate change of media with fresh Retro94. […] Bright field images of cell monolayers at 4 days post treatment are shown below graph. Brefeldin A was included as a positive control for cell death. Values in FIGS. 3A and 3C are from one representative experiment.
Normal human dermal fibroblasts, HDFs (Cell Applications Inc. 106-05N), and normal human lung fibroblasts, MRC-5 cells (ATCC CCL-171) were maintained in Dulbecco's modified Eagle's medium (DMEM) (Lonza). Human retinal pigmented epithelial cells (ARPE-19), maintained in DMEM/Ham's F12 (1:1 mix) (Lonza), human embryonic lung fibroblasts (HEL) and mouse embryonic fibroblasts (NIH 3T3), maintained in DMEM (Lonza) were obtained (Spector D J, Yetming K. Virology. 2010; 407(2):171-7; Spector D J. Virology. 2015, 476:345-54). All media was supplemented with 10% fetal bovine serum, 100 U/ml penicillin and 100 µg/ml streptomycin, and 2 mM GlutaMAX (Gibco). Cells were maintained at 37° C. with 5% CO2. […]

HCMV [2] = experiment: HCMV single-step growth curve / virus titer analysis (MOI=3); assay type: cell-based, Human cytomegalovirus (HCMV); conditions: for reduction in infectious virion production: MOI=3, titers at 96 hpi
Method: as §1
For MCMV growth curve analysis, samples were titrated on NIH 3T3 cells and titers were calculated using the 50% tissue culture infective dose method. Both HCMV virus stocks and samples for growth curves were titrated by serial dilutions on MRC5 cells and quantified by the immunological detection of immediate-early proteins as previously described (Britt W J. Human cytomegalovirus: propagation, quantification, and storage. Curr Protoc Microbiol. 2010; Chapter 14: Unit 14E.3). The numbers of stained nuclei were acquired on a Nikon Eclipse Ti Inverted microscope and fluorescent nuclei were quantified using the NIS Elements Software. Images of viral foci from infection of ARPE19 cells were also acquired on Eclipse Ti Inverted microscope. The number and size of foci were quantified using NIS Elements software.
^1H NMR spectra were recorded on a 500 MHz Bruker spectrometer (Billerica, Mass.) using tetramethylsilane (TMS) as the internal reference. The following abbreviations were used to designate chemical shift multiplicities: s=singlet, d=doublet, dd=double doublet, t=triplet, dt=doublet of triplet, m=multiplet. Mass Spec analysis was performed on 4000 Q trap hybrid triple quadrupole/linear ion trap instrument (Applied Biosystems/MDS Sciex) at the proteomic facility at Penn State Hershey Cancer Institute, Hershey, Pa. Thin-layer chromatography (TLC) was on aluminum-supported, precoated silica gel plates (EM Industries, Gibbstown, N.J.). 5-(2-methyl-3-thiazol-4-yl)-2-thiophencarboxaldehyde was purchased from MAYBRIDGE-Thermo Fisher (Cornwall, UK). All other starting materials were obtained from Aldrich Chemical Co. (Milwaukee, Wis.) and used without further purification. Retro94 was added to cells at 2 hpi at a concentration of 10 μM, unless otherwise indicated.

SMILES: Cc1nc(-c2ccc(C3N(C)c4ccccc4C(=O)N3c3ccccc3)s2)cs1 (centres unmarked) [Retro94, 1-Methyl-2-(5-(2-methylthiazol-4-yl)thiophen-2-yl)-3phenyl-2,3-dihydroquinazolin-4(1H)-one]
- reduction in the amount of infectious virus produced (HCMV [1]): five
- STX5 localization (STX5; HCMV-infected cells, 96 hpi): dispersed throughout the cell and was not located to the cVAC ring
- STX5 localization (STX5; uninfected cells): lost its Golgi-localization
- effect on cell viability or cell morphology (cells): no effect
- IC50 (HCMV [2]; Human betaherpesvirus 5, added at 2 hpi, MOI 3, 96 hpi, read-out: IC50 (HCMV titers)): ~130 nM
- reduction of production of infectious virions (HCMV [2]; MOI 3 pfu/cell, added two hours after infection, 10 μM): greater than two
- reduction in infectious virion production (HCMV [2]; added at 2 hpi): two
- reduction in infectious virion production (HCMV [2]; added at 24 hpi): 20 fold
- reduction in infectious virion production (HCMV [2]; added at 48 hpi): 5 fold
- reduction in infectious virion production (HCMV [2]; added at 72 hpi): two
- dilution at which a significant inhibition in viral titers was first present (HCMV [2]; ten-fold dilutions added at 2 hpi, MOI 3, 96 hpi): 1 µM
